Ki data for 33 compounds are collected here from patent US8940724B2, “Quinoline derivitives and their uses” (Amgen Inc., priority 2009, dated 2015).

The Ki is the dissociation constant of the complex between target and ligand, obtained from inhibition or displacement.

T1 sequence (O00329 whole entry): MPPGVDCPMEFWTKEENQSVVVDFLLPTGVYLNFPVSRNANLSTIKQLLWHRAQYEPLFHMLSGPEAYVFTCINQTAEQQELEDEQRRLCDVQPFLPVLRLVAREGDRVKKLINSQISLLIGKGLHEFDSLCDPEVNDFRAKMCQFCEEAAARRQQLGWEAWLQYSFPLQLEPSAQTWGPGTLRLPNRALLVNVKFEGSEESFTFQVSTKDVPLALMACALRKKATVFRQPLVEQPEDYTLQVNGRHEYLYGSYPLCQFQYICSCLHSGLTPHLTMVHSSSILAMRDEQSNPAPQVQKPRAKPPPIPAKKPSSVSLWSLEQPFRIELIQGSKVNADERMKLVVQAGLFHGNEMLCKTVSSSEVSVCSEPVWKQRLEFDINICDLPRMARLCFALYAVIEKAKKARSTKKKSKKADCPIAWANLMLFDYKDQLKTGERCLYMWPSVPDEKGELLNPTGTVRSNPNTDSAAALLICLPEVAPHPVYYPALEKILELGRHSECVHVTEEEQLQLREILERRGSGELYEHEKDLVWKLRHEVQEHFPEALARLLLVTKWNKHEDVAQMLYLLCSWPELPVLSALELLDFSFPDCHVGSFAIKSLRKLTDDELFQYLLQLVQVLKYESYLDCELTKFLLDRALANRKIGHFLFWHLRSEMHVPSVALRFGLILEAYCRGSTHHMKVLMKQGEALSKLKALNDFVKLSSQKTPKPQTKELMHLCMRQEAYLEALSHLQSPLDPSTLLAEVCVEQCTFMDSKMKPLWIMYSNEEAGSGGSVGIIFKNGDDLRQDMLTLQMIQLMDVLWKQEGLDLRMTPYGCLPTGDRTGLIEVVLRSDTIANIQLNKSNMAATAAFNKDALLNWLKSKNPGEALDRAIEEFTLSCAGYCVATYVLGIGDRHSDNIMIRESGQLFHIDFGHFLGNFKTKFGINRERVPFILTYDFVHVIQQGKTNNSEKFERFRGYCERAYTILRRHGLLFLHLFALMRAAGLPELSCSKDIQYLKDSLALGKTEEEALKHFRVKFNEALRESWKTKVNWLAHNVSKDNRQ
T1 sequence (P27986 whole entry partner): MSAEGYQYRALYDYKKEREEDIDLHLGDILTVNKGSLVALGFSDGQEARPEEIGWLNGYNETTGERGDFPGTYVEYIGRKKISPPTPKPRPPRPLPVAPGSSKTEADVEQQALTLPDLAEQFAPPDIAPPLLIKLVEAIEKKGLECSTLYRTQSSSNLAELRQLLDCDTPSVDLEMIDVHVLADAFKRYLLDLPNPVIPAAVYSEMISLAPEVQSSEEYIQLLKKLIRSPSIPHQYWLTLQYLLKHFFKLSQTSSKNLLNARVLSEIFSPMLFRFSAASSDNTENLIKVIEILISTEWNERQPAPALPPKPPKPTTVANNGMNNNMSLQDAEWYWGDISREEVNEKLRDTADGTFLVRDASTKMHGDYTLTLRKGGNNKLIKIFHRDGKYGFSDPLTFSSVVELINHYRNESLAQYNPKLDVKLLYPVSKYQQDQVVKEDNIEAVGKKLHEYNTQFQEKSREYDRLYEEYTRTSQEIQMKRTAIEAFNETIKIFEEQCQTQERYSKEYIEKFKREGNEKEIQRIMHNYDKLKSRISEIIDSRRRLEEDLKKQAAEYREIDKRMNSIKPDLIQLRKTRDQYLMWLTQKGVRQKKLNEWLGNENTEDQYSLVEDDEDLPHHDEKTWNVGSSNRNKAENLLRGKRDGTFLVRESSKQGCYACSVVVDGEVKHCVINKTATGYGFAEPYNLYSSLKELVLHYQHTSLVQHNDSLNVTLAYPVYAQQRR

The assay has as its target T1, PI3Kδ (Homo sapiens, UniProt O00329).
T1 construct: Full length p110 subunits of PI3k α, β and δ, N-terminally labeled with polyHis tag; polyHis (N); made in house; host or cells: Sf9 insect cells (baculovirus)
The experiment in a line: PI3Kδ Alphascreen assay. Type of assay: biochemical.
Take `Cc1c(-c2ccnc(N3CCCC3)c2)nc2cc(F)cc(F)c2c1Nc1cc(N2CCOCC2)cnc1N1CCOCC1` [N-(2,5-di-4-morpholinyl-3-pyridinyl)-5,7-difluoro-3-methyl-2-(2-(1-pyrrolidinyl)-4-pyridinyl)-4-quinolinamine]: the affinity corresponds to a Ki of 0.0407 µM.
In turn, `Cc1c(N2CCN(C(=O)c3ncccn3)CC2)nc2cc(F)cc(F)c2c1Nc1cncc(N2CCOCC2)c1` [5,7-difluoro-3-methyl-N-(5-(4-morpholinyl)-3-pyridinyl)-2-(4-(2-pyrimidinylcarbonyl)-1-piperazinyl)-4-quinolinamine] gave a Ki of 0.645 µM.
`Cc1cc(-c2nc3cc(F)cc(F)c3c(Nc3cc(N4CCOCC4)cnc3N3CCOCC3)c2C)ccn1` [N-(2,5-di-4-morpholinyl-3-pyridinyl)-5,7-difluoro-3-methyl-2-(2-methyl-4-pyridinyl)-4-quinolinamine] returned an inhibitory constant (Ki) of 0.0265 µM.
Turning to `Cc1c(-c2ccccn2)nc2c(Cl)cccc2c1Nc1cncc(N2CCOCC2)c1` [8-chloro-3-methyl-N-(5-(4-morpholinyl)-3-pyridinyl)-2-(2-pyridinyl)-4-quinolinamine], the Ki was determined as 0.00745 µM.
With `Cc1ccncc1-c1nc2cc(F)cc(F)c2c(Nc2cc(N3CCOCC3)cnc2N2CCOCC2)c1C` [N-(2,5-di-4-morpholinyl-3-pyridinyl)-5,7-difluoro-3-methyl-2-(4-methyl-3-pyridinyl)-4-quinolinamine], the Ki worked out at 0.00161 µM.
For the compound `Cc1c(N2CCN(C(=O)NC(C)C)CC2)nc2cc(F)cc(F)c2c1Nc1cncc(N2CCOCC2)c1` [4-(5,7-difluoro-3-methyl-4-((5-(4-morpholinyl)-3-pyridinyl)-amino)-2-quinolinyl)-N-(1-methylethyl)-1-piperazinecarboxamide], the Ki was 0.0506 µM.
Then `Cc1c(-c2cc(F)ccc2S(C)(=O)=O)nc2cc(F)cc(F)c2c1Nc1cncc(N2CCOCC2)c1` [5,7-difluoro-2-(5-fluoro-2-(methylsulfonyl)phenyl)-3-methyl-N-(5-(4-morpholinyl)-3-pyridinyl)-4-quinolinamine], with 0.00291 µM.
For `Cc1c(N2CCN(C(=O)N(C)C)CC2)nc2cc(F)cc(F)c2c1Nc1cncc(N2CCOCC2)c1` [4-(5,7-difluoro-3-methyl-4-((5-(4-morpholinyl)-3-pyridinyl)-amino)-2-quinolinyl)-N,N-dimethyl-1-piperazinecarboxamide] the value was 0.0725 µM; for `Cc1c(N2CCN(C(C)C)C(=O)C2)nc2cc(F)cc(F)c2c1Nc1cncc(N2CCOCC2)c1` [4-(5,7-difluoro-3-methyl-4-((5-(4-morpholinyl)-3-pyridinyl)-amino)-2-quinolinyl)-1-(1-methylethyl)-2-piperazinone], 0.024 µM.
In the case of `COc1cncc(-c2ncc(N3CCOCC3)cc2Nc2c(C)c(-c3cc(C)ccn3)nc3c(Cl)cccc23)c1` [N-(8-chloro-3-methyl-2-(4-methyl-2-pyridinyl)-4-quinolinyl)-5′-methoxy-5-(4-morpholinyl)-2,3′-bipyridin-3-amine], the Ki was 0.00901 µM.
As for `Cc1c(N2CCN(C(=O)C3CCCC3)CC2)nc2cc(F)cc(F)c2c1Nc1cncc(N2CCOCC2)c1` [2-(4-(cyclopentylcarbonyl)-1-piperazinyl)-5,7-difluoro-3-methyl-N-(5-(4-morpholinyl)-3-pyridinyl)-4-quinolinamine], the Ki is 0.042 µM.
`Cc1cccc(-c2nc3cc(F)cc(F)c3c(Nc3cc(N4CCOCC4)cnc3N3CCOCC3)c2C)c1C` [2-(2,3-dimethylphenyl)-N-(2,5-di-4-morpholinyl-3-pyridinyl)-5,7-difluoro-3-methyl-4-quinolinamine] displayed a Ki of 0.0129 µM.
The compound `Cc1ccc(C(=O)N2CCN(c3nc4cc(F)cc(F)c4c(Nc4cncc(N5CCOCC5)c4)c3C)CC2)cn1` [5,7-difluoro-3-methyl-2-(4-((6-methyl-3-pyridinyl)carbonyl)-1-piperazinyl)-N-(5-(4-morpholinyl)-3-pyridinyl)-4-quinolinamine] gave a Ki of 0.18 µM.
On to `Cc1c(N2CCN(C(=O)OC(C)(C)C)C[C@@H]2C)nc2cc(F)cc(F)c2c1Nc1cncc(N2CCOCC2)c1` [tert-butyl (3S)-4-(5,7-difluoro-3-methyl-4-((5-(4-morpholinyl)-3-pyridinyl)amino)-2-quinolinyl)-3-methyl-1-piperazinecarboxylate], for which the Ki is 0.358 µM.
`Cc1ccnc(-c2nc3cc(F)cc(F)c3c(Nc3cncc(C4=CCOCC4)c3)c2C)c1` [N-(5-(3,6-dihydro-2H-pyran-4-yl)-3-pyridinyl)-5,7-difluoro-3-methyl-2-(4-methyl-2-pyridinyl)-4-quinolinamine] yielded an inhibition constant (Ki) of 0.0144 µM.
`Cc1c(N2CCN(C(=O)OC(C)(C)C)[C@@H](C)C2)nc2cc(F)cc(F)c2c1Nc1cncc(N2CCOCC2)c1` [tert-butyl (2S)-4-(5,7-difluoro-3-methyl-4-((5-(4-morpholinyl)-3-pyridinyl)amino)-2-quinolinyl)-2-methyl-1-piperazinecarboxylate]: affinity was put at a Ki of 0.112 µM.
Regarding `COc1ccc(-c2ncc(N3CCOCC3)cc2Nc2c(C)c(-c3cc(C)ccn3)nc3cc(F)cc(F)c23)cc1` [5,7-difluoro-N-(2-(4-methoxyphenyl)-5-(4-morpholinyl)-3-pyridinyl)-3-methyl-2-(4-methyl-2-pyridinyl)-4-quinolinamine], the Ki stood at 0.00598 µM.
Then `CC(=O)c1ccc(S(C)(=O)=O)c(-c2nc3cc(F)cc(F)c3c(Nc3cncc(N4CCOCC4)c3)c2C)c1` [1-(3-(5,7-difluoro-3-methyl-4-((5-(4-morpholinyl)-3-pyridinyl)-amino)-2-quinolinyl)-4-(methylsulfonyl)phenyl)ethanone], with 0.00218 µM; and `Cc1c(-c2cccnc2)nc2cc(F)cc(F)c2c1Nc1cc(N2CCOCC2)cnc1N1CCOCC1` [N-(2,5-di-4-morpholinyl-3-pyridinyl)-5,7-difluoro-3-methyl-2-(3-pyridinyl)-4-quinolinamine], with 0.00843 µM.
Consider `Cc1c(N2CCN(S(C)(=O)=O)CC2)nc2cc(F)cc(F)c2c1Nc1cncc(N2CCOCC2)c1` [5,7-difluoro-3-methyl-2-(4-(methylsulfonyl)-1-piperazinyl)-N-(5-(4-morpholinyl)-3-pyridinyl)-4-quinolinamine], for which affinity was put at a Ki of 0.0455 µM.
For `Cc1c(N2CCN(C)CC2)nc2cc(F)cc(F)c2c1Nc1cc(N2CCOCC2)cnc1N1CCOCC1` [N-(2,5-di-4-morpholinyl-3-pyridinyl)-5,7-difluoro-3-methyl-2-(4-methyl-1-piperazinyl)-4-quinolinamine] the value was 0.012 µM; for `Cc1c(-c2cccnc2)nc2cc(F)cc(F)c2c1Nc1cc(N2CCOC[C@@H]2C)cnc1N1CCOCC1` [5,7-difluoro-3-methyl-N-(5-((3S)-3-methyl-4-morpholinyl)-2-(4-morpholinyl)-3-pyridinyl)-2-(3-pyridinyl)-4-quinolinamine], 0.0214 µM; for `Cc1c(-c2ccc(N3CC[C@@H](N(C)C)C3)nc2)nc2cc(F)cc(F)c2c1Nc1cc(N2CCOCC2)cnc1N1CCOCC1` [2-(6-((3R)-3-(dimethylamino)-1-pyrrolidinyl)-3-pyridinyl)-N-(2,5-di-4-morpholinyl-3-pyridinyl)-5,7-difluoro-3-methyl-4-quinolinamine], 0.0284 µM.
`CCN1CCN(c2nc3cc(F)cc(F)c3c(Nc3cc(N4CCOCC4)cnc3N3CCOCC3)c2C)CC1=O` [4-(4-((2,5-di-4-morpholinyl-3-pyridinyl)amino)-5,7-difluoro-3-methyl-2-quinolinyl)-1-ethyl-2-piperazinone] registered a Ki of 0.00129 µM.
For `Cc1c(-c2ccccc2S(C)(=O)=O)nc2cc(F)cc(F)c2c1Nc1cc(N2CCOCC2)ccc1S(C)(=O)=O` [5,7-difluoro-3-methyl-N-(2-(methylsulfonyl)-5-(4-morpholinyl)-phenyl)-2-(2-(methylsulfonyl)phenyl)-4-quinolinamine] the value was 0.000827 µM.
For `COC(=O)N1CCN(c2nc3cc(F)cc(F)c3c(Nc3cncc(N4CCOCC4)c3)c2C)C[C@H]1C` [methyl (2R)-4-(5,7-difluoro-3-methyl-4-((5-(4-morpholinyl)-3-pyridinyl)amino)-2-quinolinyl)-2-methyl-1-piperazinecarboxylate] the value was 0.185 µM; for `Cc1c(N2CCN(S(=O)(=O)C(C)C)CC2)nc2cc(F)cc(F)c2c1Nc1cncc(N2CCOCC2)c1` [5,7-difluoro-3-methyl-2-(4-((1-methylethyl)sulfonyl)-1-piperazinyl)-N-(5-(4-morpholinyl)-3-pyridinyl)-4-quinolinamine], 0.0534 µM; for `COc1ncccc1-c1ncc(N2CCOCC2)cc1Nc1c(C)c(-c2ccccn2)nc2cc(F)cc(F)c12` [N-(5,7-difluoro-3-methyl-2-(2-pyridinyl)-4-quinolinyl)-2′-methoxy-5-(4-morpholinyl)-2,3′-bipyridin-3-amine], 0.121 µM.
Compound `Cc1c(N2CCCCC2=O)nc2cc(F)cc(F)c2c1Nc1cncc(N2CCOCC2)c1` [1-(5,7-difluoro-3-methyl-4-((5-(4-morpholinyl)-3-pyridinyl)-amino)-2-quinolinyl)-2-piperidinone] registered a Ki of 0.203 µM.
`Cc1c(N2CCN(C)CC2)nc2cc(F)cc(F)c2c1Nc1cncc(N2CCOCC2)c1` [5,7-difluoro-3-methyl-2-(4-methyl-1-piperazinyl)-N-(5-(4-morpholinyl)-3-pyridinyl)-4-quinolinamine] displayed a Ki of 0.0352 µM.
As for `Cc1c(-c2ccc(N(C)C)nc2)nc2cc(F)cc(F)c2c1Nc1cc(N2CCOCC2)cnc1N1CCOCC1` [2-(6-(dimethylamino)-3-pyridinyl)-N-(2,5-di-4-morpholinyl-3-pyridinyl)-5,7-difluoro-3-methyl-4-quinolinamine], the affinity corresponds to a Ki of 0.0244 µM.
Turning to `CCCN1CCN(c2nc3cc(F)cc(F)c3c(Nc3cncc(N4CCOCC4)c3)c2C)CC1` [5,7-difluoro-3-methyl-N-(5-(4-morpholinyl)-3-pyridinyl)-2-(4-propyl-1-piperazinyl)-4-quinolinamine], the affinity, expressed as Ki, was 0.0135 µM.
With `Cc1c(-c2cccnc2)nc2cc(F)cc(F)c2c1Nc1cc(N2CCOC[C@H]2C)cnc1N1CCOCC1` [5,7-difluoro-3-methyl-N-(5-((3R)-3-methyl-4-morpholinyl)-2-(4-morpholinyl)-3-pyridinyl)-2-(3-pyridinyl)-4-quinolinamine], the Ki amounted to 0.0695 µM.
